Experiment: xn = mol fraction of the nth substance listed
Conditions: 101 kPa, Liquid; for viscosity: Capillary tube (Ostwald / Ubbelohde) method; for excess molar volume: Direct dilatometry; for speed of sound: Linear variable-path acoustic interferometer

C=COC(C)=O [vinyl acetate] + Cc1ccc(C)cc1
Conditions | excess molar volume, 303.15 K [m3/mol] | excess molar volume, 308.15 K [m3/mol] | excess molar volume, 313.15 K [m3/mol] | speed of sound, 303.15 K [m/s] | speed of sound, 308.15 K [m/s] | speed of sound, 313.15 K [m/s] | viscosity, 303.15 K [mPa·s] | viscosity, 308.15 K [mPa·s] | viscosity, 313.15 K [mPa·s]
x2 = 0 | 0 | 0 | 0 | 1095.9 | 1072.5 | 1055.7 | 0.384 | 0.361 | 0.332
x2 = 0.0767 | -4.3e-08 | 2e-08 | 4.2e-08 | 1108.1 | 1084.9 | 1067.7 | 0.4 | 0.367 | 0.333
x2 = 0.1577 | -6.8e-08 | 3.8e-08 | 7.2e-08 | 1122.6 | 1098.2 | 1080.6 | 0.415 | 0.376 | 0.341
x2 = 0.2421 | -7.3e-08 | 5.7e-08 | 9.8e-08 | 1138.8 | 1112.3 | 1094.7 | 0.428 | 0.387 | 0.352
x2 = 0.3332 | -7.2e-08 | 7.3e-08 | 1.21e-07 | 1156.6 | 1128 | 1110.6 | 0.44 | 0.399 | 0.365
x2 = 0.43 | -6.1e-08 | 8.9e-08 | 1.41e-07 | 1175.5 | 1145.6 | 1128.6 | 0.453 | 0.414 | 0.38
x2 = 0.5319 | -5.1e-08 | 9.6e-08 | 1.48e-07 | 1195.4 | 1165.3 | 1148.8 | 0.469 | 0.432 | 0.399
x2 = 0.6371 | -2.7e-08 | 9.2e-08 | 1.4e-07 | 1215.8 | 1187.3 | 1171 | 0.489 | 0.453 | 0.422
x2 = 0.7488 | -4e-09 | 7.6e-08 | 1.13e-07 | 1237.4 | 1211.9 | 1196.4 | 0.512 | 0.478 | 0.447
x2 = 0.8654 | 6e-09 | 4.4e-08 | 7.2e-08 | 1259.7 | 1238.6 | 1224.5 | 0.538 | 0.504 | 0.475
